These results are taken from ChEMBL document CHEMBL1201862, “PubChem BioAssay data set” (2004).

The target of assay [1] is Peroxisome proliferator-activated receptor gamma/Nuclear receptor coactivator 3 (Homo sapiens, UniProt P37231). Put plainly: TR-FRET dose response biochemical High Throughput Screening assay for agonists of the steroid receptor coactivator 3 (SRC-3) recruitment by the peroxisome proliferator-activated receptor gamma (PPAR gamma): non-selective agonists. [Related pubchem assays: 1301 (Confirmation screen.), 1048 (Primary screen.)]. Type of assay: functional.

Assay [2] concerns the target Peroxisome proliferator-activated receptor gamma/Nuclear receptor coactivator 1 (Homo sapiens, UniProt P37231). In words: TR-FRET dose response biochemical High Throughput Screening assay for agonists of the steroid receptor coactivator 1 (SRC-1) recruitment by the peroxisome proliferator-activated receptor gamma (PPAR gamma): non-selective agonists. [Related pubchem assays (depositor defined):AID1300, AID1808, AID504735, AID631]. Type of assay: protein assay.

Assay [3] concerns the target Peroxisome proliferator-activated receptor gamma/Nuclear receptor coactivator 2 (Homo sapiens, UniProt P37231). Put plainly: TR-FRET dose response biochemical High Throughput Screening assay for agonists of the steroid receptor coactivator 2 (SRC-2) recruitment by the peroxisome proliferator-activated receptor gamma (PPAR gamma): non-selective agonists. [Related pubchem assays: 1297, 1032 ]. Type of assay: functional.

The test system of the next assay is INS1. Put plainly: beta cell apoptosis inhibitors, cytokine rescue, dose response, luminescence, retest (AID 449756).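 Note: cell death triggered by IL-1 beta plus TNF-alpha plus IFN-gamma mixture; protective hits raise ATP signal compared with cytokine alone wells.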 Type of assay: functional, cell-based. To be noted: Rattus norvegicus.
For a further assay, the target named is Beta-galactosidase (Escherichia coli, UniProt Q8VNN2). Put plainly: PubChem AID 485352. Type of assay: functional.
The target of assay [4] is T1, Type-1 angiotensin II receptor (Homo sapiens, UniProt P30556).
T1 sequence (P30556 whole entry): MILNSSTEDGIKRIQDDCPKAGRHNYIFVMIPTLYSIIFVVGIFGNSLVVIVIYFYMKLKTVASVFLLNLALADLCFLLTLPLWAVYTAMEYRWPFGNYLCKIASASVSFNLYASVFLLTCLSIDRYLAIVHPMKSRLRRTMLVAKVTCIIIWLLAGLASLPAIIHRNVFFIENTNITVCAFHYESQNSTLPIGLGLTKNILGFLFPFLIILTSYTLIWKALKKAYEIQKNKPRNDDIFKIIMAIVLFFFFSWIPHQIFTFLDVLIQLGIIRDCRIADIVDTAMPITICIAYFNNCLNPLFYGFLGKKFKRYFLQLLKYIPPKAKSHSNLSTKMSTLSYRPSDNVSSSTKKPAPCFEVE
Put plainly: AT1 receptor antagonists, dose response, selectivity assay for APJ receptor antagonist project, cell-based, uHTS hits (AID 463214).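 Note: antagonist potency against angiotensin II stimulated AT1 response.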 The format is functional.

A short description of assay [5]: Luminescence Cell-Based Dose Retest to Confirm Inhibitors of Cancer Stem Cells. [Related pubchem assays (depositor defined):AID2717, AID2721]. The format is functional. Particulars: Homo sapiens.
Assay [6] has as its target T2, Alkaline phosphatase, tissue-nonspecific isozyme (Homo sapiens, UniProt P05186).
T2 sequence (P05186 whole entry): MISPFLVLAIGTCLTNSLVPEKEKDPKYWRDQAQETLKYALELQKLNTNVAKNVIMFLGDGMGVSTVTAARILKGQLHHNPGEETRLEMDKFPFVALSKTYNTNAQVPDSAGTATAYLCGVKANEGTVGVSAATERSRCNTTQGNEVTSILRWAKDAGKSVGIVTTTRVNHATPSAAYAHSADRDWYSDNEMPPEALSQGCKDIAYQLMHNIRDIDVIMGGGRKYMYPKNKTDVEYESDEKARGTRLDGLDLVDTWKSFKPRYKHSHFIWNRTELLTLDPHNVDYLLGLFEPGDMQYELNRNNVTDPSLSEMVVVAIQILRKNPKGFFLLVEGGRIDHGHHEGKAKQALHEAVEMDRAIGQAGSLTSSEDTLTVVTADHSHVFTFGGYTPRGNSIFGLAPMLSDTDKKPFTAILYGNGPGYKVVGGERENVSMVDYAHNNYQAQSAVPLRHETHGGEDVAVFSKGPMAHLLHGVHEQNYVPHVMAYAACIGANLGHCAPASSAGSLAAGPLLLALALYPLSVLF
Put plainly: human TNAP enzyme inhibitors, SAR follow-up, biochemical, luminescent, dose response (AID 1056).

Assay [7] concerns the target Glyceraldehyde-3-phosphate dehydrogenase (Homo sapiens, UniProt P04406).
Assay [8] has as its target Alkaline phosphatase, placental type (Homo sapiens, UniProt P05187). Put plainly: PLAP enzyme inhibitors, confirmation, biochemical, luminescence (AID 1512). Type of assay: functional.
Assay [9] addresses Eukaryotic translation initiation factor 4E (Mus musculus, UniProt P63073). In words: eIF4E–eIF4G protein interaction inhibitors, dose response, biochemical, TR-FRET (AID 855).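 Note: potency for disrupting eIF4E binding to eIF4GI seen as loss of FRET.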 Type of assay: functional.
The target of a further assay is T3, Estrogen receptor (Homo sapiens, UniProt P03372).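 Note: potency for inhibiting coactivator peptide recruitment to the receptor.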
T3 sequence (P03372 whole entry): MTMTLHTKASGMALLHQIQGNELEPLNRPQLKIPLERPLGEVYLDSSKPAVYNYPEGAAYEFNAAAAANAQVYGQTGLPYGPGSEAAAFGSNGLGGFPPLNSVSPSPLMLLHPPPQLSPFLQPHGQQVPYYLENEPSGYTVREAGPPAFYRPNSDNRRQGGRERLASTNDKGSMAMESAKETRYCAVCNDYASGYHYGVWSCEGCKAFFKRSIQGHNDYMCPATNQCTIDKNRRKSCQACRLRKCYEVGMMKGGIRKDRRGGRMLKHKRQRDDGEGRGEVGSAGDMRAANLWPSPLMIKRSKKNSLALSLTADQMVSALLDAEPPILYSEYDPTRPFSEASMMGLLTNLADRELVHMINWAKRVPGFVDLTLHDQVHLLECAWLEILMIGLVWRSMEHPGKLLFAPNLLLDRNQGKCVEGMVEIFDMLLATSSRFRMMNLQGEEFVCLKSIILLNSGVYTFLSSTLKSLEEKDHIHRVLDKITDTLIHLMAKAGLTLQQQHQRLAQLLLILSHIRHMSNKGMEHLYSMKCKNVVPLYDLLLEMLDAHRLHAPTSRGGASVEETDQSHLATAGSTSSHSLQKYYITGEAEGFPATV

The target in assay [10] is T4, Rac GTPase-activating protein 1 (Homo sapiens, UniProt Q9H0H5).
T4 sequence (Q9H0H5 whole entry): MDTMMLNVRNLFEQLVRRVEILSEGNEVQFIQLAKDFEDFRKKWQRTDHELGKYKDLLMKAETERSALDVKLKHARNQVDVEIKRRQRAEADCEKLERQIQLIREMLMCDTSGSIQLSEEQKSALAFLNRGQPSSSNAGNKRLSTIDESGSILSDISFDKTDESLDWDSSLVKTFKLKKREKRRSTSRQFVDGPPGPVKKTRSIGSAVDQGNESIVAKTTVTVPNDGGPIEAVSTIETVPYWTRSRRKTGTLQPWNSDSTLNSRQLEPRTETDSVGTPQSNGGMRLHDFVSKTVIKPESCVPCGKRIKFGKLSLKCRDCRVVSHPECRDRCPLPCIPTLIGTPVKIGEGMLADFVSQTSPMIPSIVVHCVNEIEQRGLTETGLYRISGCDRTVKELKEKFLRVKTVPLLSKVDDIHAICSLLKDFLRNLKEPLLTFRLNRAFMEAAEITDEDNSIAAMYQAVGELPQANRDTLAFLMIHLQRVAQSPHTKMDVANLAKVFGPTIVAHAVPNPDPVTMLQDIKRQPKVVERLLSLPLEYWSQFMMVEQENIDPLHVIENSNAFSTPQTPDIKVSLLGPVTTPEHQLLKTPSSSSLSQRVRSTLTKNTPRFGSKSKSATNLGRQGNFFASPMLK
Put plainly: MgcRacGAP GTPase-activating activity inhibitors, confirmation, biochemical, ADP Hunter fluorescence, primary and confirmatory (AID 624330). The format is functional.

The subject of the next assay is H4. In words: Luminescence Cell-Based Dose Response HTS to Identify Activators of 5'UTR Stem-Loop Driven Prion Protein mRNA Translation in H4 Neuroglioblastoma Cells. [Related pubchem assays: 1829 (Project Summary), 1814 (Primary HTS)]. The format is functional. Particulars: Homo sapiens.
Assay [11] can be described thus: Luminescence Cell-Based Dose Response HTS to Identify Activators of Luciferase Translation or Activity in H4 […] Cells. [Related pubchem assays: 1829 (Project Summary), 1814 (Primary HTS)]. Type of assay: functional.
Assay [12] can be described thus: Luminescence Cell-Based Dose Confirmation HTS to Identify Activators of 5'UTR Stem-Loop Driven Alpha-Synuclein mRNA Translation in H4 Neuroglioblastoma Cells. [Related pubchem assays: 1829 (Project Summary), 1814 (Primary HTS)]. The format is functional.

Active and inactive are the calls of the source. Where only a bound is given, the exact number is not on record here.

Sequence of Glyceraldehyde-3-phosphate dehydrogenase (P04406 whole entry): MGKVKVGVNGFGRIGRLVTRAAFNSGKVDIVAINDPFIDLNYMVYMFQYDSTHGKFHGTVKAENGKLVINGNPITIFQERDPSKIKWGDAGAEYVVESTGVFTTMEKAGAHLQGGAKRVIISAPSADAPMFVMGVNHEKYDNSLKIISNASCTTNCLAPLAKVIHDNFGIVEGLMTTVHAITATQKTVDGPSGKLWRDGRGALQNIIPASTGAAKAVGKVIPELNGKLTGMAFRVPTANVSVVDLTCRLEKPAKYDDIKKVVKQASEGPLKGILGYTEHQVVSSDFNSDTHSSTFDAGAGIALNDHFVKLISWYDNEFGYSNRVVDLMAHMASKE
Sequence of Beta-galactosidase (Q8VNN2 whole entry): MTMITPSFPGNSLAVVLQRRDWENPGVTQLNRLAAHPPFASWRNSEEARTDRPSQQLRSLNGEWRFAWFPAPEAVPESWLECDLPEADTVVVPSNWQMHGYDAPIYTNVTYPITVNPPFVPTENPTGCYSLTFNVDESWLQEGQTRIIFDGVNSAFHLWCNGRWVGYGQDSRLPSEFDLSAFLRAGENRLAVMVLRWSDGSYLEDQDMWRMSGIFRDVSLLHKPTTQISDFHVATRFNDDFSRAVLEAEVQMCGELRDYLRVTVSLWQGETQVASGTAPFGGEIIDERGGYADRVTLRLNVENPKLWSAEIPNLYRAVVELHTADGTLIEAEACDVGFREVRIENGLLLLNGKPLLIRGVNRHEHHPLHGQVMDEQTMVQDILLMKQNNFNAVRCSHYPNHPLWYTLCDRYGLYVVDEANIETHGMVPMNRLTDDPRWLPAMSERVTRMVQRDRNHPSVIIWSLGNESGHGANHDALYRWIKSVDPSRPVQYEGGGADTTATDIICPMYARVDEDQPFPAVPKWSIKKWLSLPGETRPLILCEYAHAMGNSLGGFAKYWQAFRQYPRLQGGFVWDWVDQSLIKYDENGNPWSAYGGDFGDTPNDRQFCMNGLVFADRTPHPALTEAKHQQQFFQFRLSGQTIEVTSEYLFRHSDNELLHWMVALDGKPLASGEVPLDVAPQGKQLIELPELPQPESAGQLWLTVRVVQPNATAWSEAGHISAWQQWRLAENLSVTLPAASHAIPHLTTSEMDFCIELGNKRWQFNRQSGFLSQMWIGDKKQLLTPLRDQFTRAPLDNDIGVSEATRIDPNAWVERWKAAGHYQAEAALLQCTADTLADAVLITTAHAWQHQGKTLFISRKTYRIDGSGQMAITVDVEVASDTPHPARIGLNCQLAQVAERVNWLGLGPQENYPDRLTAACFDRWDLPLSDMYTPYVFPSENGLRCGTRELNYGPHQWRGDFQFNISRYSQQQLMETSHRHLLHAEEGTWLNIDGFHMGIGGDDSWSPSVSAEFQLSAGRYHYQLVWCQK
Sequence of Peroxisome proliferator-activated receptor gamma/Nuclear receptor coactivator 3 (P37231 whole entry): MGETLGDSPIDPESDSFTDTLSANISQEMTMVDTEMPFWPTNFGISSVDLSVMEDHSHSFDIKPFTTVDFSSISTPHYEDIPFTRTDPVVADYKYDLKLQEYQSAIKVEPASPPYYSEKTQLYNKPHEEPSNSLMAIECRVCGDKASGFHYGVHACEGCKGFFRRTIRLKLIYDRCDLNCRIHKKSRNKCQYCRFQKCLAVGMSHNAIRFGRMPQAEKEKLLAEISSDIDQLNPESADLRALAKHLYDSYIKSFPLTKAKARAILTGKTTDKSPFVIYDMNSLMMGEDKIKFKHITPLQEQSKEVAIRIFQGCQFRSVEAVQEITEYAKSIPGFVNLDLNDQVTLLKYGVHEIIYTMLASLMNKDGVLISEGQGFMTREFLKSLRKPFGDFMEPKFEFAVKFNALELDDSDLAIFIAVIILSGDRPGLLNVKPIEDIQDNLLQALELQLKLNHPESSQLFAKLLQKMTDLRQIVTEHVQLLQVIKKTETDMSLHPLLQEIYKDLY
Sequence of Peroxisome proliferator-activated receptor gamma/Nuclear receptor coactivator 3 (Q9Y6Q9 whole entry, further chain): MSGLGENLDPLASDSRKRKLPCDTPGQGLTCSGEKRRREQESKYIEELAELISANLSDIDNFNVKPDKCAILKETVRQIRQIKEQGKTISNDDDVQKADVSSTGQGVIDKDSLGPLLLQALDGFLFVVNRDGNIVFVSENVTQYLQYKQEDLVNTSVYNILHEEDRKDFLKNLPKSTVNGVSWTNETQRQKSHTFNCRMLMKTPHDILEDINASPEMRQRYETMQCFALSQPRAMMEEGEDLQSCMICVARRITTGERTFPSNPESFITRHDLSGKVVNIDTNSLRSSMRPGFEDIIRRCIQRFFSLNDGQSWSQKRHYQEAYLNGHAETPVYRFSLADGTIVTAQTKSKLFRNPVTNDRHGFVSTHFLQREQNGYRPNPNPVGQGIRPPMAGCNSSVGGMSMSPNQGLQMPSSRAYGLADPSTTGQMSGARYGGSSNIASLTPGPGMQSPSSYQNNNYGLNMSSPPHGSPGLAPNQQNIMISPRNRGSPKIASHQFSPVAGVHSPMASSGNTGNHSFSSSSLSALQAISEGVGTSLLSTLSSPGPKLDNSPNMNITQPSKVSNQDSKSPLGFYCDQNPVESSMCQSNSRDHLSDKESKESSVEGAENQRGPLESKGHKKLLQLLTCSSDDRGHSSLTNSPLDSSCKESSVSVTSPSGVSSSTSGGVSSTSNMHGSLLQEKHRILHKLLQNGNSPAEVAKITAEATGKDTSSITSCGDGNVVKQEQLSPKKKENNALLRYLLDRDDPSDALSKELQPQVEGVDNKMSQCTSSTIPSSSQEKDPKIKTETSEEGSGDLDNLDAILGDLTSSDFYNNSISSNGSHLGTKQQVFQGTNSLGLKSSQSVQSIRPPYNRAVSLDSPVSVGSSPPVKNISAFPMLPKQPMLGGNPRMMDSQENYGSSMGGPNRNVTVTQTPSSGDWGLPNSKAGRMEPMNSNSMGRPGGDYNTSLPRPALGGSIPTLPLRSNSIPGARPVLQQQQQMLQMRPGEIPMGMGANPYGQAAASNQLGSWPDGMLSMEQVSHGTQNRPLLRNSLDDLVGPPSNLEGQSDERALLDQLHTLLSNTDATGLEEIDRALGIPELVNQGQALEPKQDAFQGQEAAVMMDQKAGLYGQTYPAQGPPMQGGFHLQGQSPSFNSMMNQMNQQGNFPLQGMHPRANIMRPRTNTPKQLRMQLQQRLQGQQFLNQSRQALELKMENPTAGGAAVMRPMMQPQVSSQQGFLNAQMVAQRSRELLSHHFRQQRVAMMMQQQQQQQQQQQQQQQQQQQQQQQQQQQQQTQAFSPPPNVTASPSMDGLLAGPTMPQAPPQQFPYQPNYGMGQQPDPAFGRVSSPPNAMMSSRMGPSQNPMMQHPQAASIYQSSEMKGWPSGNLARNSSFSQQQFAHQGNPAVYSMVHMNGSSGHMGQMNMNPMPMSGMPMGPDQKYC
Sequence of Alkaline phosphatase, placental type (P05187 whole entry): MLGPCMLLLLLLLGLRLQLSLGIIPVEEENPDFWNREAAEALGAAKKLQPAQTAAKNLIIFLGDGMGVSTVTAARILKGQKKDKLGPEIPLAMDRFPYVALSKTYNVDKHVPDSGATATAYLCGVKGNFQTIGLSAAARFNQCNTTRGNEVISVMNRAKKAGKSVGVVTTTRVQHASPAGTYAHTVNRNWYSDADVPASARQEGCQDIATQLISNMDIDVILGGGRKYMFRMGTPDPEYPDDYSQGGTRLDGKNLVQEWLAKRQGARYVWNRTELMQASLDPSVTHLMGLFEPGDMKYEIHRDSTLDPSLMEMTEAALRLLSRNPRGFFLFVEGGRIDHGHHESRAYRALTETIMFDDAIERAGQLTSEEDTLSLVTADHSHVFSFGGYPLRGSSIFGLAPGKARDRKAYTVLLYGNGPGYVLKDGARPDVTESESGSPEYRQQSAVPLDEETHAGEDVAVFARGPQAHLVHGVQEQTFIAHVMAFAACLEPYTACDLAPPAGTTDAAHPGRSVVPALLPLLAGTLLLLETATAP
Sequence of Eukaryotic translation initiation factor 4E (P63073 whole entry): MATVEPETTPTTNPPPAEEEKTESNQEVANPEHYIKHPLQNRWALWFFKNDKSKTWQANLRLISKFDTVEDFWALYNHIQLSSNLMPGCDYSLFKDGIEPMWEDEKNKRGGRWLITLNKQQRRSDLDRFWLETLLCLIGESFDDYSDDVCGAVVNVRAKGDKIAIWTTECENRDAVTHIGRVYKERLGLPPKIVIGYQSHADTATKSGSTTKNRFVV

For `Cc1ccc(-n2c(S)nnc2-c2cccc(C)c2)cc1`, the EC50 in assay [1] is > 79.4 µM (not active); in [2] it was 70.8 µM (inactive); in assay [3], 40.1 µM (not active).

With `O=C(CSc1ncnc2c1oc1ccccc12)NC1CCCCC1`, the EC50 in assay [1] was > 79.4 µM (not active); in assay [2] it was 9.85 µM (active); in assay [3] it was 14.4 µM (not active).

For `COc1ccc2c(c1)C(=O)[C@H](O)[C@@H](c1ccc(OC)c(Br)c1)O2`, the AC50 in the assay on INS1 is 3.71 µM (active); in assay [5] it was 7.62 µM (active). On Beta-galactosidase, the EC50 is > 40 µM (inactive). The IC50 in assay [4] is 12.1 µM (active).

Take `O=C1CC(Sc2nnc(-c3ccccc3)o2)C(=O)N1c1ccccc1` (stereo not drawn): the results for the EC50 in assay [1], in assay [2] and in [3] were > 79.4 µM (not active), > 79.4 µM (inactive) and 89.2 µM (not active), respectively.

For the compound `CC1(C)CC(=O)c2c(n[nH]c2-c2cccnc2)C1`, the IC50 was 13.3 µM (active) in assay [6], > 100 µM (not active) in [7] and > 100 µM (inactive) in assay [8].

On to `O=C(CSc1nnc(-c2ccccc2)[nH]1)c1ccc(O)cc1O`, for which the IC50 is 3.71 µM (active) in [6] and > 100 µM (inactive) in assay [8].

Consider `COC(=O)COc1ccc(S(=O)(=O)Nc2ccc3c(c2)OCO3)cc1`, for which the IC50 in assay [9] is > 64 µM (inactive); at Estrogen receptor, > 50 µM (not active).

On to `CCOC(=O)c1sc2nc(C)nc(S)c2c1C`, for which the values for the EC50 in assay [1], in assay [2] and in assay [3] were > 79.4 µM (not active), 162 µM (inactive) and 37.3 µM (not active), respectively.

For `CN(C)c1ccc2c(c1)N=C(c1ccco1)OP2(=S)N1CCOCC1` (stereo not drawn), the IC50 in [9] is > 64 µM (inactive); in [10], 179 µM (active). Besides, the results for the EC50 (with H4; in assay [11]; in assay [12]) were 49.6 µM (active), 17.9 µM (active) and 15.7 µM (active), respectively.

`CCNC(=S)NNC(=O)c1cc(C2CC2)nc2ccccc12`: the IC50 in [8] is > 100 µM (inactive).

With `Nc1nc(COc2ccccc2)n(-c2ccccc2)n1`, the figures for the IC50 in [6], in [7] and in [8] were > 100 µM (inactive), > 100 µM (not active) and > 100 µM (inactive), respectively.

Consider `COc1ccc(CNC(=O)CSc2nc(-c3ccccc3)cc(-c3cccs3)c2C#N)cc1`, for which the EC50 in [1] is > 79.4 µM (not active); in assay [2] it was 22.9 µM (inactive); in [3], 22.2 µM (not active).

Regarding `O=S(=O)(Nc1cccnc1)c1cc(Cl)ccc1Cl`, the values for the IC50 in assay [6] and in assay [7] were > 100 µM (inactive) and > 100 µM (not active), respectively.

`O=C1c2cccc(F)c2C(=O)N1c1nnc(Cc2ccccc2)[nH]1`: the half-inhibitory concentration (IC50) is 0.353 µM (active) in assay [6], > 100 µM (not active) in assay [7] and > 100 µM (inactive) in assay [8].

Consider `O=C(O)c1ccc2c(c1)C(=O)N(c1nc(-c3cccnc3)n[nH]1)C2=O`, for which the IC50 in [6] is > 100 µM (inactive); in assay [7] it was > 100 µM (not active).

For the compound `CCc1c(C(=O)NNC(=S)NCC2CCCO2)csc1C` (stereo not drawn), the IC50 in assay [8] is > 100 µM (inactive).

On to `O=C(NNc1ccc(-c2csnn2)cc1)c1cc(Cl)cc(Cl)c1`, for which the EC50 on Beta-galactosidase is > 40 µM (inactive). In assay [4], the IC50 was 2.43 µM (active). Further, the AC50 in [5] is 2.15 µM (active).

On to `COc1ccc(CC(=O)OCC(=O)c2ccc(S(=O)(=O)N3CCCCC3)cc2)cc1`, for which, at Beta-galactosidase, the EC50 is > 40 µM (inactive). Further, in [4], the IC50 was 20 µM (not active).
